Marks after values point to notes of the source that are not given here.
Experiments:
blood WBC = experiment: Blood WBC numbers and differential counts in CPA-treated mice; format: in vivo, ICR mice; conditions: LPC 1, DW286 0.5, Mix 0.75 mg/kg; for Total WBC / WBC differentials: Basophils / WBC differentials: Eosinophils / WBC differentials: Lymphocytes / WBC differentials: Monocytes / WBC differentials: Neutrophils: blood at sacrifice
Procedure: Blood were collected at sacrifice of CPA-treated model from vena cava and total blood leukocyte numbers were calculated using counting chamber, diluting pipette and Türk solution as dilution solution. All numbers were calculated as ×10^3/mm^3. In addition, cell numbers of lymphocytes, eosinophils, neutrophils, monocytes and basophils were calculated among 100 total leukocytes in smear blood samples stained with Giemsa.

CPA-CLP mice = experiment: Mortality of CPA-CLP mice, LPC and DW286AA alone or combined (Example 9); s.c. 4 times 12-hr intervals from 6 hrs after CLP; format: in vivo, ICR mice; conditions: for Survival rate: LPC 1, DW286 0.5, Mix 0.75 mg/kg; for survival rates (survivors/total in brackets), Table 13: mg/kg: LPC 1, LPC + DW286 0.5 + 0.25, DW286/LPC 0.5/1.0, LPC/DW286 1.0/0.5, DW286 0.5
From the text: CPA is well known as an immunosuppressive agent. […] Then, the abdomen was closed following the general procedure.

[1] = tested on: CPA-induced immunosuppressive mice; experiment: Histopathology/histomorphometry of thymus and spleen in CPA-treated mice; format: in vivo, ICR mice; conditions: for Spleen: Number of white pulps / Thymus: Incidences of thymic cortex atrophy (atrophic changes/total observed number of thymus) / incidences of decrease of lymphoid cells in the thymic cortex / numbers of white pulps of spleen, change compared to CPA control: LPC 1, DW286 0.5, Mix 0.75 mg/kg
Procedure: After measuring of organ weight, thymus and spleen was sampled. Sampled organs were fixed in 10% neutral buffered formalin. After paraffin embedding, 3-4 μm sections were prepared. Representative sections were stained with Hematoxylin and Eosin (H&E) for light microscopical examination. After that the histological profiles of individual organs were observed.
The numbers of white pulps in spleen were calculated as N/histological sections (×50) using automated image analysis (analySIS Image Processing; SIS, Germany). In addition, the numbers of atrophic changes on thymic cortex/total observed number of thymus were also calculated.

[2] = tested on: CPA-induced immunosuppressive mice; experiment: Thymus and spleen organ weights in CPA-treated mice; format: in vivo, ICR mice; conditions: LPC 1, DW286 0.5, Mix 0.75 mg/kg; for Spleen weight, Relative / Thymus weight, Relative: % of body weight at sacrifice; for Spleen weight, Absolute / Thymus weight, Absolute: at sacrifice
Procedure: At sacrifice of CPA-treated model, the wet-weights of spleen and thymus were measured and regarded as absolute weight and then relative organ weight (% of body weight) was calculated as follow:
=[(Absolute organ weights/Body weight at sacrifice individual)×100]

[3] = Body weight of CPA-treated mice (Example 9); s.c. 4 times 12-hr intervals from 24 hrs after last CPA-dosing; conditions: LPC 1, DW286 0.5, Mix 0.75 mg/kg
Procedure: In the INTACT control group, an equal volume of physiological saline was dosed instead of CPA by the same method.
In Intact control animals, equal volume of saline was only dosed instead of CPA with same methods.
In CPA-CLP model, body weight and mortalities were measured once a day for 5 days with automatic electronic balances (Sartorius Co., Ltd., USA), once a day for 2 days in CPA-treated model. All animals were overnight fasted at CPA dosing, CLP or initial dosing to reduce differences from feeding. In addition, body weight gains were calculated as follows:
CPA-Treat Model: Body weight at sacrifice—at initial dosing (2 days)
To find suitable dosing regime of LPC and DW286AA combination during the development of new therapeutic agents against sepsis, evaluation was conducted by using CPA-CLP— and CPA-induced immunosuppressive mice. […] Then, mortalities, changes in thymus and spleen weights, changes in white blood cell (WBC) number, and changes in thymic and splenic CD3+, CD4+, CD8+, and TNF-α+ cell numbers, were evaluated together with changes in bone marrow polychromatic erythrocytes contain micronuclei (MNPCE) number.
Appropriate doses of candidate materials were dissolved in 5% human serum albumin, and subcutaneously dosed at 10 ml/kg (of body weight), 4 times 12-hr intervals from 6 hrs after CLP or 24 hrs after last CPA-dosing, respectively. In the INTACT, CPA, or CPA-CLP control groups, an equal volume of 5% human serum albumin was dosed by the same procedure.

[4] = At First CPA dosing (overnight fasted)

Compound: CON=C1CN(c2nc3c(cc2F)c(=O)c(C(=O)O)cn3C2CC2)CC1(C)CN.Cl (stereo not shown) [DW286aa, 7-[3-(aminomethyl)-4-(methoxyimino)-3-methyltetrahydro-1H-1-pyrrolyl]-1-cyclopropyl-6-fluoro-4-oxo-1,4-dihydro[1,8]naphthyridine-3-carboxylic acid hydrochloric acid salt]
- blood total WBC numbers, change compared to CPA control (blood WBC): −11.31%
- ratio of lymphocytes, change compared to CPA control (blood WBC): −23.56%
- ratio of monocytes, change compared to CPA control (blood WBC): 13.43%
- ratio of neutrophils, change compared to CPA control (blood WBC): −1.09%
- Total WBC (blood WBC): 0.41 ± 0.19 ×10^3/mm^3
- WBC differentials: Basophils (blood WBC): 0.89 ± 0.78%
- WBC differentials: Eosinophils (blood WBC): 0.22 ± 0.44%
- WBC differentials: Lymphocytes (blood WBC): 14.56 ± 9.75 %
- WBC differentials: Monocytes (blood WBC): 42.78 ± 17.33 %
- WBC differentials: Neutrophils (blood WBC): 41.56 ± 10.64 %
- Survival rate (CPA-CLP mice; 1 day after CLP): 100%
- survival rates (survivors/total in brackets), Table 13 (CPA-CLP mice; 1 day after dosing): 100 (9/9)
- Survival rate (CPA-CLP mice; 2 days after CLP): 44.44%
- survival rates (survivors/total in brackets), Table 13 (CPA-CLP mice; 2 days after dosing): 44 (4/9)
- Survival rate (CPA-CLP mice; 3 days after CLP): 33.33%
- survival rates (survivors/total in brackets), Table 13 (CPA-CLP mice; 3 days after dosing): 33 (3/9)
- Survival rate (CPA-CLP mice; 4 days after CLP): 0%
- survival rates (survivors/total in brackets), Table 13 (CPA-CLP mice; 4 days after dosing): 0 (0/9)
- Survival rate (CPA-CLP mice; 5 days after CLP): 0%
- Survival rate (CPA-CLP mice; At CLP): 100%
- survival rates (survivors/total in brackets), Table 13 (CPA-CLP mice; Dosing Day 0): 100 (9/9)
- Survival rate (CPA-CLP mice; Total): 100%
- Spleen: Number of white pulps [1]: 6.11 ± 1.45 N/histological sections
- Thymus: Incidences of thymic cortex atrophy (atrophic changes/total observed number of thymus) [1]: 9/9 (100%)
- incidences of decrease of lymphoid cells in the thymic cortex [1]: 100%
- numbers of white pulps of spleen, change compared to CPA control [1]: −1.79%
- Spleen weight, Relative [2]: 0.117 ± 0.023 %
- Thymus weight, Relative [2]: 0.082 ± 0.018 %
- absolute splenic weights, change compared to CPA control [2]: −7.08%
- absolute thymic weights, change compared to CPA control [2]: −2.73%
- relative splenic weights, change compared to CPA control [2]: −7.46%
- relative thymic weights, change compared to CPA control [2]: −3.12%
- Spleen weight, Absolute [2]: 0.045 ± 0.009 g
- Thymus weight, Absolute [2]: 0.032 ± 0.008 g
- Body weight ([3]; 1 day after second CPA-dosing): 37.46 ± 1.96 g
- Body weight ([3]; 2 days after second CPA-dosing): 38.61 ± 1.95 g
- Body weight ([3]; At Dosing (overnight fasted)): 33.02 ± 1.95 g
- Body weight [3, 4]: 36.84 ± 1.83 g
- Body weight gains during 2 days after dosing [3]: 5.59 ± 1.03 g
- body weight (gains) change compared to the CPA control group [3]: −1.37%

Compound: Lysophosphatidylcholine [LPC]
- blood total WBC numbers, change compared to CPA control (blood WBC): 25.00%
- ratio of lymphocytes, change compared to CPA control (blood WBC): 268.78%
- ratio of monocytes, change compared to CPA control (blood WBC): −85.27%
- ratio of neutrophils, change compared to CPA control (blood WBC): −51.07%
- Total WBC (blood WBC): 0.58 ± 0.14 ×10^3/mm^3
- WBC differentials: Basophils (blood WBC): 2.33 ± 1.22*^,## %
- WBC differentials: Eosinophils (blood WBC): 1.33 ± 1.12 %
- WBC differentials: Lymphocytes (blood WBC): 70.22 ± 9.90 %
- WBC differentials: Monocytes (blood WBC): 5.56 ± 3.13 %
- WBC differentials: Neutrophils (blood WBC): 20.56 ± 8.76 %
- Survival rate (CPA-CLP mice; 1 day after CLP): 55.55%
- survival rates (survivors/total in brackets), Table 13 (CPA-CLP mice; 1 day after dosing): 56 (5/9)
- Survival rate (CPA-CLP mice; 2 days after CLP): 33.33%
- survival rates (survivors/total in brackets), Table 13 (CPA-CLP mice; 2 days after dosing): 33 (3/9)
- Survival rate (CPA-CLP mice; 3 days after CLP): 22.22%
- survival rates (survivors/total in brackets), Table 13 (CPA-CLP mice; 3 days after dosing): 22 (2/9)
- Survival rate (CPA-CLP mice; 4 days after CLP): 0%
- survival rates (survivors/total in brackets), Table 13 (CPA-CLP mice; 4 days after dosing): 0 (0/9)
- Survival rate (CPA-CLP mice; 5 days after CLP): 0%
- Survival rate (CPA-CLP mice; At CLP): 100%
- survival rates (survivors/total in brackets), Table 13 (CPA-CLP mice; Dosing Day 0): 100 (9/9)
- Survival rate (CPA-CLP mice; Total): 0%
- atrophic changes (decreases in lymphoid cells in the thymic cortex), FIG. 7 ([1]; CPA-treated model, in words): effectively inhibited
- splenic atrophy and decrease in lymphoid cells, FIG. 8 ([1]; CPA-treated model, in words): effectively inhibited
- Spleen: Number of white pulps [1]: 12.56 ± 1.81*^,# N/histological sections
- Thymus: Incidences of thymic cortex atrophy (atrophic changes/total observed number of thymus) [1]: 8/9 (88.89%)
- incidences of decrease of lymphoid cells in the thymic cortex [1]: 88.89%
- numbers of white pulps of spleen, change compared to CPA control [1]: 101.79%
- Spleen weight, Relative [2]: 0.178 ± 0.018*^,# %
- Thymus weight, Relative [2]: 0.099 ± 0.017 %
- absolute splenic weights, change compared to CPA control [2]: 35.62%
- absolute thymic weights, change compared to CPA control [2]: 13.31%
- relative splenic weights, change compared to CPA control [2]: 40.69%
- relative thymic weights, change compared to CPA control [2]: 17.56%
- Spleen weight, Absolute [2]: 0.066 ± 0.007*^,# g
- Thymus weight, Absolute [2]: 0.037 ± 0.007 g
- Body weight ([3]; 1 day after second CPA-dosing): 36.54 ± 1.72 g
- Body weight ([3]; 2 days after second CPA-dosing): 37.04 ± 1.47 g
- Body weight ([3]; At Dosing (overnight fasted)): 32.08 ± 1.47 g
- Body weight [3, 4]: 36.58 ± 1.36 g
- Body weight gains during 2 days after dosing [3]: 4.97 ± 1.67 g
- body weight (gains) change compared to the CPA control group [3]: −12.35%

Reference: US9446061B2, “Composition containing antibiotics and lysophosphatidylcholine for boosting immunity or treatment of bacterial infections” (priority 2011, dated 2016)
